Here are results for 4 molecules from patent US12303491B2, “Econazole nitrate medical patch and methods of use thereof” (Temple University-Of The Commonwealth System of Higher …, priority 2017, dated 2025).

≈ marks a conversion by molar mass, not a printed value.

The conditions of data set [1]: cited from earlier work.
Data set [2] in a line: Drug release rate from acrylate patch. Format: physicochemical. The method, then: The percentage of TU was maintained at a concentration off 1%. Three concentrations of EN (1% w/w, 2.5% w/w and 5% w/w) and three concentrations of PG (5% w/w, 10% w/w and 20% w/w) were evaluated. The acrylate films were first fabricated with DURO-TAK® 87-4098. The total weight of the mixture was 5 g. Methanol was the only solvent used for dissolving the components in the acrylates films. The purpose of this was to screen out what concentration of EN and PG could be added into the polymer to form an acceptable patch. Then according to the EN and PG concentration determined from the DURO-TAK® 87-4098 films, fabricated patches using acrylate grades DURO-TAK® 87-2287, DURO-TAK® 87-4287 and DURO-TAK® 87-9301.
Drug release from hydrophobic polymers is slow. The adhesives polymer used are hydrophobic polymers. To increase polymer chain mobility, the addition of a hydrophobic plasticizer was considered. Triacetin (TAC) and triethyl citrate (TEC) were the selected plasticizers. The adhesive polymer acrylate had been selected as the best polymer system. TAC or TEC was added into the acrylate polymer at three different levels. These were, 5%, 10% and 20% (based on the 5 g matrix weight).

The conditions of data set [3]: cited from earlier work. The source holds these as a separate data set.
The test system of the next data set is dermatomycoses. To be noted: topical, dermatological studies, treatment period 2 to 6 weeks; cited from earlier work.
The conditions of data set [4]: cited from earlier work. The source holds these as a separate data set.
Data set [5] can be described thus: In-vitro skin permeation, Franz diffusion cells. Format: in vitro ADME, human. From the text: The patch was studied for the transdermal permeation of EN using human cadaver skin and Franz diffusion cells (FIG. 2A). Three films each with an area of 4 cm^2 square patch were cut from patch film. The skin was cut into 1.5 cm by 1.5 cm pieces, and mount on the Franz diffusion cells with orifice diameter of 9 mm (FIG. 2B). The release liner was removed from the films and the matrix surface was placed in contact with the skin. The area of 0.64 cm^2 of the skin was in contact with the receiving medium. The receiver compartment was sampled at 1, 2, 4, 8, 12 and 24 hr by withdrawing 0.5 mL of the receiving medium and replacing with equal volume of pH 7.4 PBS. At the end of 24 hr, epidermis and dermis were heat separated and extracted for EN content.

Data set [6] is classed as in vitro ADME, human. The method, then: The cadaver toenails were cut into 7 mm×7 mm (49 mm^2) pieces. The nail pieces were then hydrated at 100% RH overnight prior to start of experiment. The hydrated nail pieces were placed in the neoprene nail adapters (FIG. 2A) with orifice diameter of 5 mm. The receiver compartment was filled with pH 7.4 PBS (3 mL) containing 0.1% w/v gentamicin sulfate and the assembly was maintained at 32±1° C. throughout the duration of the experiment. Each sample was tested in triplicate. The patch in absence of thiourea was used as the control. The patches with diameter of 5 mm were cut. The release liner was removed and the drug matrix was placed in contact with the nail. The new patch was applied every 24 hrs for 14 days. Throughout the duration of the study, the Franz cells were dosed with a new patch daily. On the days 2, 4, 6, 8, 10, 12 and 14, 0.5 mL of the sample was withdrawn from the receiver compartment and replaced with equal volume of new receiving medium.

Data set [7] in a line: Nail penetration study in PVP solution. To be noted: 1% and 5% PVP group compared to phosphoric buffer pH 7.4 and pH 5 groups.
Data set [8] is described as follows: Crystallization in patch films (visual observation). Format: physicochemical. The method, then:
The drug (EN) and the PEs, thiourea (TU) and propylene glycol (PG), were dissolved or uniformly dispersed in the pressure sensitive adhesive(s) (PSAs), and spread onto a release liner. The drug (EN) and the nail PE (TU) were weighed out in a glass bottle and dissolved in solvent (methanol) and vortexed for 1 min. Then PG was weighed and added as solubilizer for EN and plasticizer for the patch. The solution was vortexed with the methanol as solvent until a single phase was obtained. Afterwards, the hydrophobic plasticizers triethyl citrate and hydrophilic polymer polyvinylpyrrolidone were weighed and mixed with the solvents prior to addition of PG. Finally the polymer was weighed out into the glass bottle and vortexed for 5 min to form a homogenous mixture. The formulae for the patch include but are not limited to those in Table 3. The bottles were then placed on the bottle roller and mixed overnight at medium speed to complete the mixing and remove the air bubbles generated during vortexing the polymer. […]
The percentage of TU was maintained at a concentration off 1%. Three concentrations of EN (1% w/w, 2.5% w/w and 5% w/w) and three concentrations of PG (5% w/w, 10% w/w and 20% w/w) were evaluated. […] Then according to the EN and PG concentration determined from the DURO-TAK® 87-4098 films, fabricated patches using acrylate grades DURO-TAK® 87-2287, DURO-TAK® 87-4287 and DURO-TAK® 87-9301. […]

The nature of data set [9]: Drug saturation solubility study. To be noted: PVP 1% and 5% solution compared to phosphoric buffer pH 7.4 and pH 5 (P<0.05).
The next data set relates to plasma protein. To be noted: cited from earlier work.
Data set [10] concerns Corynebacterium diphtheria. Conditions: cited from earlier work.
For a further data set, the system named is Streptococcus faecium. To be noted: cited from earlier work.
The test system of another data set is Streptococcus pyogenes. To be noted: cited from earlier work.
The subject of the next data set is Streptococcus bovis. To be noted: cited from earlier work.
The test system of a further data set is Listeria monocytogenes. Conditions: cited from earlier work.
Another data set relates to Bacillus subtilis. To be noted: cited from earlier work.
The subject of another data set is Streptococcus faecalis. Conditions: cited from earlier work.
Data set [11] concerns Staphylococcus epidermidis. Conditions: cited from earlier work.
The test system of the next data set is Staphylococcus aureus. Conditions: cited from earlier work.

Regarding `Cc1cc(C2CCCCC2)n(O)c(=O)c1` [CPO, ciclopirox], the aqueous solubility in data set [1] is 1.4 mg/mL (≈ 6750 µM).
Broadly, the Log P is a log measure of how a compound divides between an organic and an aqueous phase. One may read the pKa as the pH at which an ionisable group is half protonated. For the molecule `Clc1ccc(COC(Cn2ccnc2)c2ccc(Cl)cc2Cl)cc1` (stereo not shown) [econazole nitrate, Econazole nitrate], the drug release rate in data set [2] (acrylate patch in absence of PVP) is on record as 22.347 μg/cm^2/hour; in [2] (acrylate patch with 1% PVP) it was 26.713 μg/cm^2/hour; in [2] (acrylate patch with 5% PVP), 27.853 μg/cm^2/hour. In [3] (at 19° C.), the “Water Solubility” value was less than 0.1 g/100 mL at 19 °C. Also, the lipophilicity (Log P) in data set [3] is 5.5. For the same molecule, in [3], the pKa is 6.77. For the same molecule, in data set [1], the aqueous solubility is 1.5 micrograms/ml. In the data set with dermatomycoses, the patients cured result is recorded as “about 90%”. For the same molecule, in [4] (as a cream, patients), the “topically applied drug remaining on the skin surface” value is reported as “about 90%”. Besides, the “drug amount in the receiver compartment” value in data set [5] (human cadaver skin, after 24 hours) is given as “no drug amount appeared”. Also, the “drug amount in the dermis” value in data set [5] (patch with thiourea vs without, 24 hr) was “no significant difference”. The “drug amount in the epidermis” value in [5] (patch with thiourea, 24 hr) was determined as 5.63 ug/cm^2; in [5] (patch without thiourea, 24 hr) it was 1.73 ug/cm^2. Further, the “drug amount in nail plate” value in data set [6] is reported as “significantly increase”. The “amount penetrated into the nail plate” value in [7] is reported as “significantly higher”. For the same molecule, the crystallization in patch result in [8] (acrylate PSA patch, drug load 5% w/w, no PG added) is given as “slight crystallization”; in data set [8] (acrylate patch screening, EN concentration raised to 5% w/w), “crystallization occurred”. In addition, the saturation solubility result in data set [9] is given as “significantly higher”.
As a reminder, the MIC is the smallest concentration in the dilution series that meets the test's criterion for growth inhibition. As to `Clc1ccc(COC(Cn2ccnc2)c2ccc(Cl)cc2Cl)cc1` (stereo not shown) [econazole], the plasma protein binding result in the data set with plasma protein is listed as “greater than 98%”. The MIC was 0.78 µg/mL (≈ 2.04 µM) in data set [10]; 25 µg/mL (≈ 65.5 µM) with Streptococcus faecium; 12.5 µg/mL (≈ 32.7 µM) in the data set with Streptococcus pyogenes; 6.25 µg/mL (≈ 16.4 µM) in the data set with Streptococcus bovis; 1.56 µg/mL (≈ 4.09 µM) in the data set with Listeria monocytogenes; 12.5 µg/mL (≈ 32.7 µM) in the data set with Bacillus subtilis. Also, the MIC in the data set with Streptococcus faecalis is 25 µg/mL (≈ 65.5 µM); in [11], 12.5 µg/mL (≈ 32.7 µM); in the data set on Staphylococcus aureus, 12.5 µg/mL (≈ 32.7 µM). Moreover, the “unchanged drug in urine” value in [4] (human, in vivo) is “No unchanged econazole is detected”. Also, in [4] (vaginal cream, over 96 hours), the “dose recovered in urine and feces” value is on record as “less than 3%”.
As to `Clc1ccc(COC(Cn2ccnc2)c2ccc(Cl)cc2Cl)c(Cl)c1` (stereo not shown) [miconazole base, miconazole], the minimum inhibitory concentration (MIC) in data set [10] is 0.39 µg/mL (≈ 0.937 µM); in the data set with Streptococcus faecium, 25 µg/mL (≈ 60.1 µM); with Streptococcus pyogenes, 6.25 µg/mL (≈ 15 µM); in the data set with Streptococcus bovis, 3.12 µg/mL (≈ 7.5 µM); in the data set on Listeria monocytogenes, 1.56 µg/mL (≈ 3.75 µM); with Bacillus subtilis, 3.12 µg/mL (≈ 7.5 µM). Further, the MIC with Streptococcus faecalis was 25 µg/mL (≈ 60.1 µM); in data set [11] it was 6.25 µg/mL (≈ 15 µM); in the data set with Staphylococcus aureus, 6.25 µg/mL (≈ 15 µM).
